Measurements as given in US20240285553A1, “METHODS TO MODULATE MITOPHAGY WITH SREBP SIGNALING PATHWAY ACTIVATORS” (THE TRUSTEES OF INDIANA UNIVERSITY, priority 2021, published 2024).
Entries after “also recorded” stand apart in the source; their conditions may differ.

How the values were obtained:
[1] = tested on: HF-PH mice; assay: High-fat diet AKR/J HF-PH mouse model; type: in vivo; details: 4 weeks, implanted mini osmotic pump, vs vehicle
From the text: FIG. 14: Using a mouse model fed a high-fat diet, AKR/J mice develop obesity, insulin resistance, heart failure with preserved ejection fraction, and pulmonary hypertension and are designated as “HF-PH mice”.
Using a mouse model fed a high-fat diet (Research Diets, New Brunswick, NJ) for 16-20 weeks, AKR/J mice (Jackson Laboratories, Bar Harbor, ME) develop obesity, insulin resistance, heart failure with preserved ejection fraction, and pulmonary hypertension. (Meng, et al., 2017; Arwood, et al., 2019).

[2] = tested on: beta-adrenergic receptor; details: cited from earlier work
[3] = tested on: SREBP1; assay: Western blot of SREBP1, SCD and NCEH1 (SREBP1 activation); type: cell-based, human; details: western blot
From the text: Western blot. Cell lysates were resolved on a SDS PAGE pre-cast gel (Invitrogen) and resolved proteins were transferred on to a PVDF membrane for further detection of proteins using specific antibodies. Antibodies for SREBP1 were purchased from Santa Cruz Biotechnology (Cat #sc-365513) and Novus biological (Cat #NB100-2215). SCD antibody was purchased from Santa Cruz Biotechnology (Cat #sc-58420). Tom20 and LAMP1 antibodies were purchased from Cell Signaling (Cat #42406S and 15665S, respectively). […]

[4] = tested on: ECs; assay: Transmission electron microscopy for mitophagy; type: cell-based, human; details: 10 uM propranolol, 10 uM R-propranolol or 0.1 uM JW480 for 12 hours
Procedure: Transmission Electron Microscopy. […] Thin sections from these fixed cell blocks were visualized on Tecnai Spirit (ThermoFisher) TEM Microscope. Images captured were analyzed.
TEM evidence. […] ECs exposed to these drugs were fixed and the images were captured on a TEM.

[5] = tested on: pulmonary arterial endothelial cells (PAECs); assay: Western blot of mitochondrial marker TOM20 as measure of mitophagy; type: cell-based, human; details: ECs / PAEC
From the text: Western blot. Cell lysates were resolved on a SDS PAGE pre-cast gel (Invitrogen) and resolved proteins were transferred on to a PVDF membrane for further detection of proteins using specific antibodies. Antibodies for SREBP1 were purchased from Santa Cruz Biotechnology (Cat #sc-365513) and Novus biological (Cat #NB100-2215). SCD antibody was purchased from Santa Cruz Biotechnology (Cat #sc-58420). Tom20 and LAMP1 antibodies were purchased from Cell Signaling (Cat #42406S and 15665S, respectively).
(§1) First, degradation of a mitochondrial marker (TOM20) was evaluated as a bio-chemical marker of mitophagy induction.

[6] = tested on: PAEC / ECs; assay: Immunofluorescence microscopy of Tom20 and lysosomal marker LAMP1 (mitophagy); type: cell-based, human; details: ECs
From the text: Immunofluorescence Microscopy. Cells were fixed with 4% Formaldehyde (Electron Microscopy Sciences, #C993M24) and permeabilized in the presence of 0.1% Triton X-100 (Sigma). Full-length SREBP1 was stained using mouse monoclonal antibody from Santa Cruz Biotechnology (Cat #sc-365513). Whereas nuclear SREBP1 was detected using antibody from Novus biological (Cat #NB100-2215). […] Tom20 and LAMP1 antibodies were purchased from Cell Signaling (Cat #42406S and 15665S, respectively). Images were captured on an inverted fluorescent microscope (Leica).
as §1
Fixed cells were stained with Tom20 and Lamp1 and the fluorescence images were captured on a fluorescence microscope.

[7] = tested on: Sugen/hypoxia-induced PAH in rats; assay: Sugen/hypoxia (SuHx) rat model of PAH; type: in vivo
Procedure: FIGS. 10A-10C-R-propranolol attenuates rodent PAH. Sugen (20 mg/kg, IP) injection was administered to rats and then they were exposed to 3 weeks of hypoxia (10% FiO2) and then placed in normoxia (21% FiO2) for 4 weeks to develop severe pulmonary arterial hypertension (FIG. 10A is a schematic of the experimental procedure). Rats were then administered either r-propranolol (5 mg/kg/day, IP) for the last 4 weeks or r-propranolol (10 mg/kg/day, IP) for the last 2 weeks or vehicle for the last 4 weeks. Rats with vehicle exposure developed severe PAH at the end of the protocol as confirmed by right ventricular systolic pressures (RVSP; FIG. 10B) and surrogate measures of RV hypertrophy (RV/(LV+S); FIG. 10C).
FIGS. 15A-15M-R-propranolol attenuates rodent PAH. Sugen (20 mg/kg, IP) injection was administered to rats and then they were exposed to 3 weeks of hypoxia (10% FiO2) and then placed in normoxia (21% FiO2) for 4 weeks to develop severe pulmonary arterial hypertension (FIG. 15A is a schematic of the experimental procedure). Rats receiving Sugen (SuHx) for three weeks of 7 weeks were then administered either r-propranolol (5 mg/kg/day, IP) for the last 4 weeks or r-propranolol (10 mg/kg/day, IP) for the last 2 weeks or vehicle for the last 4 weeks. SuHx treated rats (but not controls) with vehicle exposure developed severe PAH at the end of the protocol as confirmed by right ventricular pressures (RVP; FIG. 15B) and right ventricular systolic pressures (RVSP; FIG. 15C, lane 1: control; lane 2: control+r-propranolol 5 mg; lane 3: SuHx 3 wk; lane 4: SuHx 7 wk; lane 5: SuHx+r-propranolol 5 mg; SuHx+r-propranolol 10 mg) and surrogate measures of RV hypertrophy (FIGS. 15D-15J). […] FIG. 15K show the PA thickness of SuHx treated rats with vehicle exposure vs r-propranolol exposure. FIG. 15L show the RV cross-sectional thickness of SuHx treated rats with vehicle exposure vs r-propranolol exposure.
R-propranolol attenuated rodent PAH. Rats were administered a one-time sugen (20 mg/kg, IP) injection and exposed to 3 weeks of hypoxia (10% FiO2) and then placed in normoxia (21% FiO2) for 4 weeks. […] In the last 4 week normoxic period, rats were administered either r-propranolol (5 mg/kg/day, IP) for the last 4 weeks or r-propranolol (10 mg/kg/day, IP) for the last 2 weeks or vehicle for the last 4 weeks. Rats with vehicle exposure developed severe PAH at the end of the protocol as confirmed by right ventricular systolic pressures (RVSP) and surrogate measures of RV hypertrophy (RV/(LV+S)).

[8] = 5 mg/kg/day IP for the last 4 weeks
[9] = 10 mg/kg/day IP for the last 2 weeks

SMILES: CC(C)NC[C@@H](O)COc1cccc2ccccc12 [R-propranolol]
- right ventricular systolic pressure [1]: significantly decreased
- beta-adrenergic receptor affinity, fold less than propranolol [2]: 100 fold
- SCD (SREBP1 target) levels ([3]; ECs / PAEC): elevated
- SREBP1 levels (non-cleaved; decrease indicates cleavage and activation) ([3]; ECs / PAEC): reduce SREBP1 levels
- NCEH1 levels ([3]; ECs): higher
- mitophagy by TEM (bilipid membrane formation around mitochondria) [4]: promoted mitophagy
- Tom20 levels (mitophagy) [5]: decreased Tom20 levels; also recorded: lower
- mitophagy by immunofluorescence (Tom20/Lamp1) [6]: induce mitophagy; also recorded: Tom20 was mobilized to lysosome
- RV hypertrophy (RV/(LV+S)) [7, 8]: trended toward improvement
- RVSP [7, 8]: trended toward improvement
- RV hypertrophy (RV/(LV+S)) [7, 9]: attenuated
- RVSP [7, 9]: attenuated
